The test system of the experiment is MDA-MB-231 (human breast cancer) cell line. Nature of the experiment: MTT cell viability assay in MDA-MB-231 cells. The class given is cell-based. Conditions: 72 h; for viability at 20 µM: positive control at 20 µM. As for the experimental part: Thus, we screened the synthesized library of pyrazolo[1,5-a]pyrimidin-7-ols 4a–4i. Anticancer activity (in terms of growth inhibition/decreased cell viability with respect to control) of all synthesized compounds (n = 9) was investigated by MTT assay in MDA-MB-231 (human breast cancer) cell line at different concentrations for 72 h. […] Thus, it was aimed to investigate the anticancer activity of a synthesized library of triazole-linked glycohybrids of pyrazolo[1,5-a]pyrimidines. […] The MTT assay was used to investigate the anticancer activity of twenty-seven synthesized compounds on the growth inhibition and decrement in cell viability of MDA-MB-231 (human breast cancer). Different concentrations were tested for 72 h, and the results were compared to a control. MDA-MB-231, a human breast cancer cell line, was cultured under standard conditions. Specifically, they were grown in Dulbecco’s Modified Eagle’s Medium (DMEM) supplemented with 10% heat-inactivated Fetal Bovine Serum (FBS) and 1% penicillin–streptomycin. The cells were maintained as a monolayer in a 100 mm culture plate and were used for experiments before reaching their 8th passage. Subculturing was performed every third-day using trypsin EDTA treatment. All incubation and maintenance procedures were carried out in a humidified CO2 incubator at 37 °C. To evaluate cell viability, the MTT assay was conducted following standard procedures. After 72 h of cell incubation with or without each compound, cell viability was assessed using MTT (3-(4,5-dimethylthiazol-2-yl)-2,5-diphenyltetrazolium bromide), which is a colorimetric method for determining the number of viable cells in various assays including proliferation, cytotoxicity, or chemosensitivity. The MTT reagent was added to the cells after removal of the medium and incubated for 3 h at 37 °C in the CO2 incubator. The formazan product, which is […] in the tissue culture medium, was dissolved in DMSO, and the absorbance of the formazan product was directly measured at 595 nm using a multimode plate reader without additional processing. The absorbance values are directly proportional to the number of viable cells in culture. The percentage of viable cells in each group was determined relative to the untreated control cells.
(Tetrazolium assays rely on reduction of a dye to a coloured formazan, in cell work by metabolically active cells.)

Setting [1] is: Table 2, MDA-MB-231, MTT, read-out: Cell viability (%) ± SD.

Like-named read-outs stand apart in the source and are kept apart here.

Regarding `CC(=O)OC[C@H]1O[C@H](n2cc(COc3cc(-c4ccc(C(F)(F)F)cc4)nc4ccnn34)nn2)[C@@H](OC(C)=O)[C@@H](OC(C)=O)[C@@H]1OC(C)=O` [Compound 11f, (2R,3R,4S,5S,6S)-2-(acetoxymethyl)-6-(4-(((5-(4-(trifluoromethyl)phenyl)pyrazolo[1,5-a]pyrimidin-7-yl)oxy)methyl)-1H-1,2,3-triazol-1-yl)tetrahydro-2H-pyran-3,4,5-triyl triacetate], under setting [1], the viability at 10 µM amounted to 79.6 ± 4.7%, the viability at 25 µM came to 74.5 ± 4.44% and the viability at 50 µM was found to be 86.5 ± 7.27%.

Regarding `CC(=O)OC[C@H]1O[C@@H](n2cc(COc3cc(-c4ccc5c(c4)OCO5)nc4ccnn34)nn2)[C@H](OC(C)=O)[C@@H](OC(C)=O)[C@H]1OC(C)=O` [Compound 10i, (2R,3S,4S,5R,6R)-2-(acetoxymethyl)-6-(4-(((5-(benzo[d][1,3]dioxol-5-yl)pyrazolo[1,5-a]pyrimidin-7-yl)oxy)methyl)-1H-1,2,3-triazol-1-yl)tetrahydro-2H-pyran-3,4,5-triyl triacetate], under setting [1], the viability at 10 µM worked out at 100 ± 9.67%, the viability at 25 µM was 99.25 ± 0.34% and the viability at 50 µM worked out at 98.5 ± 1.88%.

In the case of `CC(=O)OC[C@H]1O[C@@H](n2cc(COc3cc(-c4ccc(C(F)(F)F)cc4)nc4ccnn34)nn2)[C@H](OC(C)=O)[C@@H](OC(C)=O)[C@@H]1OC(C)=O` [Compound 9f, (2R,3R,4S,5R,6R)-2-(acetoxymethyl)-6-(4-(((5-(4-(trifluoromethyl)phenyl)pyrazolo[1,5-a]pyrimidin-7-yl)oxy)methyl)-1H-1,2,3-triazol-1-yl)tetrahydro-2H-pyran-3,4,5-triyl triacetate], under setting [1], the viability at 10 µM stood at 92.2 ± 8.51%, the viability at 25 µM was 88.8 ± 8.75% and the viability at 50 µM turned out to be 73.8 ± 7.02%.

With `CC(=O)OC[C@H]1O[C@H](n2cc(COc3cc(-c4ccc5ccccc5c4)nc4ccnn34)nn2)[C@@H](OC(C)=O)[C@@H](OC(C)=O)[C@@H]1OC(C)=O` [Compound 11h, (2R,3R,4S,5S,6S)-2-(acetoxymethyl)-6-(4-(((5-(naphthalen-2-yl)pyrazolo[1,5-a]pyrimidin-7-yl)oxy)methyl)-1H-1,2,3-triazol-1-yl)tetrahydro-2H-pyran-3,4,5-triyl triacetate], under setting [1], the viability at 10 µM was 101 ± 9.28%, the viability at 25 µM amounted to 89.8 ± 2.22% and the viability at 50 µM was determined as 82.5 ± 5.45%.

For the molecule `CC(=O)OC[C@H]1O[C@@H](n2cc(COc3cc(-c4ccc(Br)cc4)nc4ccnn34)nn2)[C@H](OC(C)=O)[C@@H](OC(C)=O)[C@H]1OC(C)=O` [Compound 10c, (2R,3S,4S,5R,6R)-2-(acetoxymethyl)-6-(4-(((5-(4-bromophenyl)pyrazolo[1,5-a]pyrimidin-7-yl)oxy)methyl)-1H-1,2,3-triazol-1-yl)tetrahydro-2H-pyran-3,4,5-triyl triacetate], under setting [1], the viability at 10 µM was 79.5 ± 2.43%, the viability at 25 µM is 77.8 ± 2.43% and the viability at 50 µM turned out to be 74 ± 2.62%.

Turning to `COc1ccc(-c2cc(OCc3cn([C@@H]4O[C@H](COC(C)=O)[C@@H](OC(C)=O)[C@H](OC(C)=O)[C@H]4OC(C)=O)nn3)n3nccc3n2)cc1` [Compound 9b, (2R,3R,4S,5R,6R)-2-(acetoxymethyl)-6-(4-(((5-(4-methoxyphenyl)pyrazolo[1,5-a]pyrimidin-7-yl)oxy)methyl)-1H-1,2,3-triazol-1-yl)tetrahydro-2H-pyran-3,4,5-triyl triacetate], under setting [1], the viability at 10 µM came to 95.4 ± 5.38%, the viability at 25 µM was 85.5 ± 6.74% and the viability at 50 µM is 83.4 ± 4.16%.

For `CC1=CC(=O)c2ccccc2C1=O` [Menadione, menadione, reference compound], the viability at 20 µM stood at 21.8 ± 4.7% (Table 1, MDA-MB-231, MTT, read-out: Cell Viability (%) ± SD) and 20.8 ± 6.7% under setting [1].

On to `CC(=O)OC[C@H]1O[C@@H](n2cc(COc3cc(-c4ccc(F)cc4)nc4ccnn34)nn2)[C@H](OC(C)=O)[C@@H](OC(C)=O)[C@@H]1OC(C)=O` [Compound 9e, (2R,3R,4S,5R,6R)-2-(acetoxymethyl)-6-(4-(((5-(4-fluorophenyl)pyrazolo[1,5-a]pyrimidin-7-yl)oxy)methyl)-1H-1,2,3-triazol-1-yl)tetrahydro-2H-pyran-3,4,5-triyl triacetate], for which, under setting [1], the viability at 10 µM turned out to be 98.6 ± 2.25%, the viability at 25 µM amounted to 92.2 ± 1.96% and the viability at 50 µM amounted to 81.2 ± 9.22%.

In the case of `CC(=O)OC[C@H]1O[C@H](n2cc(COc3cc(-c4ccc5c(c4)OCO5)nc4ccnn34)nn2)[C@@H](OC(C)=O)[C@@H](OC(C)=O)[C@@H]1OC(C)=O` [Compound 11i, (2R,3R,4S,5S,6S)-2-(acetoxymethyl)-6-(4-(((5-(benzo[d][1,3]dioxol-5-yl)pyrazolo[1,5-a]pyrimidin-7-yl)oxy)methyl)-1H-1,2,3-triazol-1-yl)tetrahydro-2H-pyran-3,4,5-triyl triacetate], under setting [1], the viability at 10 µM stood at 97.5 ± 4.91%, the viability at 25 µM is 95.3 ± 3.6% and the viability at 50 µM worked out at 93.9 ± 9.08%.

As to `CC(=O)OC[C@H]1O[C@H](n2cc(COc3cc(-c4ccc(Cl)cc4)nc4ccnn34)nn2)[C@@H](OC(C)=O)[C@@H](OC(C)=O)[C@@H]1OC(C)=O` [Compound 11d, (2R,3R,4S,5S,6S)-2-(acetoxymethyl)-6-(4-(((5-(4-chlorophenyl)pyrazolo[1,5-a]pyrimidin-7-yl)oxy)methyl)-1H-1,2,3-triazol-1-yl)tetrahydro-2H-pyran-3,4,5-triyl triacetate], under setting [1], the viability at 10 µM is 95.8 ± 5.85%, the viability at 25 µM is 92.1 ± 6% and the viability at 50 µM turned out to be 89 ± 1.1%.

For the molecule `CC(=O)OC[C@H]1O[C@@H](n2cc(COc3cc(-c4ccc(C(C)C)cc4)nc4ccnn34)nn2)[C@H](OC(C)=O)[C@@H](OC(C)=O)[C@@H]1OC(C)=O` [Compound 9g, (2R,3R,4S,5R,6R)-2-(acetoxymethyl)-6-(4-(((5-(4-isopropylphenyl)pyrazolo[1,5-a]pyrimidin-7-yl)oxy)methyl)-1H-1,2,3-triazol-1-yl)tetrahydro-2H-pyran-3,4,5-triyl triacetate], under setting [1], the viability at 10 µM worked out at 110 ± 13.5%, the viability at 25 µM turned out to be 103 ± 3.51% and the viability at 50 µM was 68.5 ± 17.7%.

Broadly, the viability is a read-out of living cells in per cent, often relative to untreated cells.

These data come from paper PMC10766964, “Copper-catalyzed synthesis of pyrazolo[1,5-a]pyrimidine based triazole-linked glycohybrids: mechanistic insights and bio-applications” (Scientific Reports, 2024).
